According to PMC9045277, “Quercetin Reduces the Virulence of S. aureus by Targeting ClpP to Protect Mice from MRSA-Induced Lethal Pneumonia” (Microbiology Spectrum, 2022):

Target: T1, ClpP (Staphylococcus aureus, UniProt Q2G036)
T1 construct: pET28a-clpP, purified from E. coli BL21(DE3)
Assay: biochemical
Conditions: read-out: Relative inhibition rate (%)
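Further: ClpP peptidase activity measured as fluorescence (ex 360 nm, em 465 nm) from cleavage of Suc-LY-AMC substrate at 100 µM, 30 min at 32°C.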

T1 sequence (Q2G036 whole entry): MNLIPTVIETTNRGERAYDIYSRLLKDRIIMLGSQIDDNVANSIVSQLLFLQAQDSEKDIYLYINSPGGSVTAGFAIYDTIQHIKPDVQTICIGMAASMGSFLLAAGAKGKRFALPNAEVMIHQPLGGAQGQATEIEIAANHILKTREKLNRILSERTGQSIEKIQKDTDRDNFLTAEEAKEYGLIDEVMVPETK
Experimental: This property was exploited to screen the available laboratory library of small molecules for ClpP inhibitors. First, 10 μM ClpP and 64 μg/mL of the small molecule compound were added to a black opaque 96-well plate containing 100 μL of ClpP buffer (100 mM HEPES,100 mM NaCl) and incubated for 1 h at room temperature. Afterward, 100 μM Suc-LeuTyr-AMC (Cat number S1153, Sigma-Aldrich, St. Louis, MO, USA) was added to 96-well plates and incubated for 30 min at 32°C. Finally, the fluorescence values were detected by Infinite M200 (360 nm excitation/465 nm emission). […] Since the fluorescent substrate Suc-LY-AMC can be used to detect the activity of ClpP protein, we screened a library of natural products available in our laboratory.

SMILES: O=C1O[C@H]2[C@@H]3OC(=O)c4cc(O)c(O)c(O)c4-c4c(O)c(O)c5oc(=O)c6c(c(O)c(O)c7oc(=O)c4c5c76)-c4c(cc(O)c(O)c4O)C(=O)OC[C@H]3OC(O)[C@@H]2OC(=O)c2cc(O)c(O)c(O)c2-c2c1cc(O)c(O)c2O (mixture of isomers) [Punicalagin]
- inhibition at 64 µg/mL: 28.3 ± 3.67%

SMILES: COc1ccc(-c2cc(=O)c3c(O)c(OC)c(OC)cc3o2)cc1O [3',5-Dihydroxy-4',6,7-trimethoxyflavone]
- inhibition at 64 µg/mL: 55.8 ± 2.5%

SMILES: O=c1ccc2cc(O)c(O)cc2o1 [6,7-Dihydroxycoumarin]
- inhibition at 64 µg/mL: 19.6 ± 3.54%

SMILES: CC1=CC(=O)CC(C)(C)[C@@]1(O)/C=C/C(C)=C\C(=O)O [Abscisic acid]
- inhibition at 64 µg/mL: 0.8 ± 3.42%

SMILES: O=C1c2ccccc2C(=O)c2c1ccc(O)c2O [Alizarin]
- inhibition at 64 µg/mL: 56.6 ± 5.28%

SMILES: C=C1CC[C@@H]2[C@](C)(CO)[C@H](O)CC[C@@]2(C)[C@@H]1C/C=C1/C(=O)OC[C@H]1O [Andrographolide]
- inhibition at 64 µg/mL: 15.8 ± 0.72%

SMILES: COc1ccc(-c2cc(=O)c3c(O)cc(OC)cc3o2)cc1 [Apigenin 7,4'-dimethyl ether]
- inhibition at 64 µg/mL: 18.4 ± 1.24%

SMILES: O=c1cc(-c2ccc(O)cc2)oc2cc(O)cc(O)c12 [Apigenin]
- inhibition at 64 µg/mL: 13.6 ± 0.52%

SMILES: C[C@@H]1CC[C@H]2[C@@H](C)C(=O)O[C@@H]3O[C@@]4(C)CC[C@@H]1[C@]32OO4 [Artemisinin]
- inhibition at 64 µg/mL: 4.9 ± 4.21%

SMILES: CC(=O)OCC1=C[C@@H]2OC(=O)C3=CO[C@@H](O[C@@H]4O[C@H](CO)[C@@H](O)[C@H](O)[C@H]4O)[C@H]1[C@@H]32 [Asperuloside]
- inhibition at 64 µg/mL: 17.4 ± 2.31%

SMILES: C[C@@H]1O[C@@H](O[C@H]2C(=O)c3c(O)cc(O)cc3O[C@@H]2c2ccc(O)c(O)c2)[C@H](O)[C@H](O)[C@H]1O [Astilbin]
- inhibition at 64 µg/mL: 9.1 ± 2.73%

SMILES: O=c1c(O[C@@H]2O[C@H](CO)[C@@H](O)[C@H](O)[C@H]2O)c(-c2ccc(O)cc2)oc2cc(O)cc(O)c12 [Astragalin]
- inhibition at 64 µg/mL: 51.3 ± 1.73%

SMILES: O=c1c(O[C@@H]2O[C@@H](CO)[C@H](O)[C@H]2O)c(-c2ccc(O)c(O)c2)oc2cc(O)cc(O)c12 [Avicularin]
- inhibition at 64 µg/mL: 46 ± 1.22%

SMILES: CC(=O)O[C@H]1C(=O)[C@@]2(C)[C@H]([C@H](OC(=O)c3ccccc3)[C@]3(O)C[C@H](O)C(C)=C1C3(C)C)[C@]1(OC(C)=O)CO[C@@H]1C[C@@H]2O [Baccatin III]
- inhibition at 64 µg/mL: 7.2 ± 3.26%

SMILES: O=C(O)[C@H]1O[C@@H](Oc2cc3oc(-c4ccccc4)cc(=O)c3c(O)c2O)[C@H](O)[C@@H](O)[C@@H]1O [Baicalin]
- inhibition at 64 µg/mL: 27.3 ± 0.55%

SMILES: O=c1c(O[C@@H]2O[C@H](CO)[C@@H](O)[C@H](O)[C@H]2O[C@@H]2O[C@H](CO)[C@@H](O)[C@H](O)[C@H]2O)c(-c2ccc(O)c(O)c2)oc2cc(O)cc(O)c12 [Baimaside]
- inhibition at 64 µg/mL: 25.1 ± 0.69%

SMILES: COc1ccc(-c2oc3c(CC=C(C)C)c(O)cc(O)c3c(=O)c2O[C@@H]2O[C@@H](C)[C@H](O)[C@@H](O)[C@H]2O)cc1 [Baohuoside I]
- inhibition at 64 µg/mL: 37.1 ± 0.59%

SMILES: CC(C)=CCc1cc2c(cc1O)O[C@H](c1ccc(O)cc1)CC2=O [Bavachin]
- inhibition at 64 µg/mL: 21.7 ± 1.75%

SMILES: CC(C)(C)[C@]1(O)C[C@@H]2OC(=O)C[C@@]23C(=O)O[C@@H]2OC(=O)[C@H](O)[C@]213 [Bilobalide]
- inhibition at 64 µg/mL: 17.4 ± 1.76%

SMILES: COc1ccc(-c2coc3cc(O)cc(O)c3c2=O)cc1 [Biochanin A]
- inhibition at 64 µg/mL: 28.2 ± 1.38%

SMILES: Oc1ccc2c(c1)OC[C@]1(O)Cc3cc(O)c(O)cc3[C@H]21 [Brazilin]
- inhibition at 64 µg/mL: 47.2 ± 2.57%

SMILES: COC(=O)[C@@]12OC[C@]34[C@H]([C@@H](O)[C@@H]1O)[C@@]1(C)CC(=O)C(O)=C(C)[C@@H]1C[C@H]3OC(=O)[C@H](OC(C)=O)[C@@H]24 [Bruceine B]
- inhibition at 64 µg/mL: 1.6 ± 2.71%

SMILES: COc1ccc(-c2cc(=O)c3c(O)cc(O[C@@H]4O[C@H](CO[C@@H]5O[C@@H](C)[C@H](O)[C@@H](O)[C@H]5O)[C@@H](O)[C@H](O)[C@H]4O)cc3o2)cc1 [Buddleoside]
- inhibition at 64 µg/mL: 46.2 ± 1.25%

SMILES: COc1ccc(-c2coc3cc(O[C@@H]4O[C@H](CO)[C@@H](O)[C@H](O)[C@H]4O)ccc3c2=O)cc1O [Calycosin-7-glucoside]
- inhibition at 64 µg/mL: 4.2 ± 0.84%

SMILES: COc1ccc(-c2oc3cc(OC)c(OC)c(O)c3c(=O)c2OC)cc1O [Casticin]
- inhibition at 64 µg/mL: 56.8 ± 1.22%

SMILES: CCC1=C[C@@H]2CN3CCc4c([nH]c5ccccc45)[C@@](C(=O)OC)(C2)[C@@H]13 [Catharanthine]
- inhibition at 64 µg/mL: 10.3 ± 1.62%

SMILES: O=C(/C=C/c1ccc(O)c(O)c1)O[C@@H]1C[C@](O)(C(=O)O)C[C@@H](O)[C@H]1O [Chlorogenic acid]
- inhibition at 64 µg/mL: 10.4 ± 1.12%

SMILES: O=c1cc(-c2ccccc2)oc2cc(O)cc(O)c12 [Chrysin]
- inhibition at 64 µg/mL: 49 ± 3.18%

SMILES: COc1cc(-c2oc3cc(OC)c(OC)c(O)c3c(=O)c2OC)ccc1O [Chrysosplenetin]
- inhibition at 64 µg/mL: 52.4 ± 0.36%

SMILES: CC1(C)CCC2(CO)C(=C3C=CC4C5(C)CCC(OC6OC(COC7OC(CO)C(O)C(O)C7O)C(OC7OC(CO)C(O)C(O)C7O)C(O)C6O)CC5C(C)(CO)CC4(C)C3(C)CC2O)C1 (centres unmarked) [Clinodiside A]
- inhibition at 64 µg/mL: 16 ± 2.78%

SMILES: COc1cc(O)c2c(=O)c(O[C@@H]3O[C@H](CO)[C@@H](O)[C@H](O)[C@H]3O)c(-c3ccc(O[C@@H]4O[C@H](CO)[C@@H](O)[C@H](O)[C@H]4O)cc3)oc2c1 [Complanatuside]
- inhibition at 64 µg/mL: 12.3 ± 0.47%

SMILES: Nc1[nH]c(=O)nc2c1ncn2[C@@H]1O[C@H](CO)[C@@H](O)[C@H]1O [Crotonoside]
- inhibition at 64 µg/mL: 28.1 ± 3.17%

SMILES: O=C(/C=C/c1ccc(O)c(O)c1)O[C@H]1[C@H](O)C[C@](O)(C(=O)O)C[C@H]1O [Cryptochlorogenic acid]
- inhibition at 64 µg/mL: 13.7 ± 3.15%

SMILES: C[C@@H]1C(=O)O[C@H](C)[C@H]1C[C@@H](O)[C@](C)(O)[C@H]1CC[C@@]2(O)C3=CC(=O)[C@@H]4C[C@@H](O)[C@@H](O)C[C@]4(C)[C@H]3CC[C@]12C [Cyasterone]
- inhibition at 64 µg/mL: 25.6 ± 2.65%

SMILES: C/C=C/c1cc(OC)c2c(c1)C(C)C(c1ccc(O)c(OC)c1)O2 (centres unmarked) [Dehydrodiisoeugenol]
- inhibition at 64 µg/mL: 5.3 ± 0.61%

SMILES: COc1ccc([C@@H]2CC(=O)c3c(O)cc(O[C@@H]4O[C@H](CO[C@@H]5O[C@@H](C)[C@H](O)[C@@H](O)[C@H]5O)[C@@H](O)[C@H](O)[C@H]4O)cc3O2)cc1 [Didymin]
- inhibition at 64 µg/mL: 31.2 ± 0.59%

SMILES: COc1ccc(-c2cc(=O)c3c(O)cc(O)cc3o2)cc1O [Diosmetin]
- inhibition at 64 µg/mL: 6.1 ± 1.68%

SMILES: COc1ccc(-c2cc(=O)c3c(O)cc(O[C@@H]4O[C@H](CO[C@@H]5O[C@@H](C)[C@H](O)[C@@H](O)[C@H]5O)[C@@H](O)[C@H](O)[C@H]4O)cc3o2)cc1O [Diosmin]
- inhibition at 64 µg/mL: 31.7 ± 0.92%

SMILES: COc1ccc(-c2oc3c(CC=C(C)C)c(O[C@@H]4O[C@H](CO)[C@@H](O)[C@H](O)[C@H]4O)cc(O)c3c(=O)c2O[C@@H]2O[C@@H](C)[C@H](O)[C@@H](O[C@@H]3O[C@H](CO)[C@@H](O)[C@H](O)[C@H]3O)[C@H]2O)cc1 [Epimedin A1]
- inhibition at 64 µg/mL: 26.7 ± 0.81%

SMILES: COc1ccc(-c2oc3c(CC=C(C)C)c(O[C@@H]4O[C@H](CO)[C@@H](O)[C@H](O)[C@H]4O)cc(O)c3c(=O)c2O[C@@H]2O[C@@H](C)[C@H](O)[C@@H](O)[C@H]2O[C@@H]2OC[C@@H](O)[C@H](O)[C@H]2O)cc1 [Epimedin B]
- inhibition at 64 µg/mL: 29.1 ± 2.01%

SMILES: Cc1c(O)c(C)c2c(c1O)C(=O)C[C@@H](c1ccc(O)cc1)O2 [Farrerol]
- inhibition at 64 µg/mL: 33.5 ± 0.73%

SMILES: COc1ccc(/C=C/C(=O)c2c(O)cc(OC)cc2OC)cc1 [Flavokawain A]
- inhibition at 64 µg/mL: 2.6 ± 1.17%

SMILES: COc1cc2ccc(=O)oc2c(O)c1O [Fraxetin]
- inhibition at 64 µg/mL: 50.3 ± 4.62%

SMILES: O=c1c(-c2ccc(O)cc2)coc2cc(O)cc(O)c12 [Genistein]
- inhibition at 64 µg/mL: 33.5 ± 0.65%
